Assay results taken from patent US20250268260A1, “PESTICIDAL COMPOSITIONS INCLUDING AN ISOXAZOLINE COMPOUND” (SYNGENTA CROP PROTECTION AG, priority 2022, published 2025).

Assays:
Assay type in all cases: in vivo
Spodoptera littoralis = test: Foliar spray on soybean plants, Spodoptera littoralis larvae mortality (Example 1); conditions: isocycloseram 0.4 ppm (0.2 g AI/ha), Bt1 45 ppm (22.5 g AI/ha), alone or combined, second instar larvae; for % mortality (3DAA) Observed Results: 3 days after application; for % mortality (5DAA) Observed Results: 5 days after application
Description: The products VIRANTRA SC400 and COSTAR WG 18 are diluted with the addition of water to obtain the concentrations of active ingredients gathered in Table 1 and Table 2, and were applied on soybean plants (planted in pots; ˜8 plants per pot, 5 pots per treatment), in using a turn table application machine (500 l/ha). After drying 10 soybean plants were cut and placed in a petri dish (diameter: 14.5 cm) containing 3 wet filter papers (4 ml water); 3 replicates per concentration were done. Plants were infested with 10 Spodoptera littoralis larvae (second instar of larvae) and petri dish was covered with a round cotton tissue and closed with a plastic lid. Three and five days after application mortality was assessed.

Diabrotica balteata = test: Corn seed treatment, Diabrotica balteata larvae mortality and plant damage (Example 2); conditions: 6 days after infestation, alone or combined
Description: The products FS400 and NOVODOR 3% FC were diluted with the addition of water to have the dose of active ingredient for 30 seeds plus an overage of 10%. These extra 10% were needed to compensate for losses of active ingredient during the seed treatment process. 30 seeds of corn were placed in a spheric glass beaker, and the application solution was added. The beaker was swung to mix the seeds with the solution. After drying, four seeds were sown per pot. 5 replicates per treatment were prepared. 14 days after sowing the pots were infested with 5 second instar larvae of Diabrotica balteata. 6 days after infestation (6DAI) the mortality of larvae and the damage on the plants was assessed.

Agriotes lineatus = test: Barley seed treatment, wireworm (Agriotes lineatus) corrected mortality and plant height (Example 3); conditions: for Plant height in cm / % Increase plant height in comparison to infested control (6DAI) observed: 6DAI; for Plant height in cm: barley, infested control 9.3, not infested control 14.9; for % Corrected mortality (20 DAI) observed: 20 days after infestation, barley seed treatment
Description: The products FS400 and NOVODOR 3% FC were diluted with the addition of water to have the dose of active ingredient for 30 seeds plusan overage of 10%. These extra 10% were needed to compensate for losses of active ingredient during the seed treatment process. 30 seeds of barley were placed in a spheric glass beaker, and the application solution was added. The beaker was swung to mix the seeds with the solution. After drying two seeds were sown per pot. 10 replicates per treatment were prepared. 5 days after sowing the pots were infested with 10 wireworms (Agriotes lineatus, approx. 20 mm length). 20 days after infestation (20DAI), the corrected mortality of the wireworms was assessed based on the control treatment. 6 days after infestation (6DAI) the plant height was measured.

[1] = isocycloseram 0.01 mg/seed (3 g/100 kg seeds), Bt2 0.03 mg/seed (10 g/100 kg seeds)
[2] = isocycloseram 0.03 mg/seed (10 g/100 kg seeds), Bt2 0.1 mg/seed (30 g/100 kg seeds)
[3] = isocycloseram 0.25 μg/seed (6 g/100 kg seed), alone or + Bt2 5 μg/seed
[4] = isocycloseram 1.25 μg/seed (24 g/100 kg seed), alone or + Bt2 5 μg/seed
[5] = Bt2 alone 5 μg/seed (120 g/100 kg seed)

Molecule	% mortality (3DAA) Observed Results (Spodoptera littoralis)	% mortality (5DAA) Observed Results (Spodoptera littoralis)	% Mortality (6DAI) observed (Diabrotica balteata; [1])	% Plant damage reduction (6DAI) observed (Diabrotica balteata; [1])	% Mortality (6DAI) observed (Diabrotica balteata; [2])	% Plant damage reduction (6DAI) observed (Diabrotica balteata; [2])	Plant height in cm (Agriotes lineatus; [3])	Plant height in cm (Agriotes lineatus; [4])	% Increase plant height in comparison to infested control (6DAI) observed (Agriotes lineatus; [3])	% Increase plant height in comparison to infested control (6DAI) observed (Agriotes lineatus; [4])	% Corrected mortality (20 DAI) observed (Agriotes lineatus; isocycloseram 0.25 μg/seed (6 g/100 kg seed), alone or + Bt2 5 μg/seed (120 g/100 kg seed))	% Corrected mortality (20 DAI) observed (Agriotes lineatus; isocycloseram 1.25 μg/seed (24 g/100 kg seed), alone or + Bt2 5 μg/seed (120 g/100 kg seed))	% Increase plant height in comparison to infested control (6DAI) observed (Agriotes lineatus; [5])	Plant height in cm (Agriotes lineatus; [5])	% Corrected mortality (20 DAI) observed (Agriotes lineatus; [5])
CCN1OCC(NC(=O)c2ccc(C3=NOC(c4cc(Cl)c(F)c(Cl)c4)(C(F)(F)F)C3)cc2C)C1=O (stereo not drawn) [isocycloseram]	0%	7%	33%	33%	58%	50%	10.2 cm	10.6 cm	10%	14%	17%	25%	–	–	–
Bacillus thuringiensis var. kurstaki strain SA-12 [Bt1]	20%	30%	–	–	–	–	–	–	–	–	–	–	–	–	–
Bacillus thuringiensis var. tenebrionis strain NB-176 [Bt2]	–	–	0%	−6%	0%	11%	–	–	–	–	–	–	0%	9 cm	0%
